Key:
Type in all cases: ADME
Settings in all cases: 0.5 h
Cytochrome P450 1A1 = target: T1, Cytochrome P450 1A1 (Homo sapiens, UniProt P04798); assay: Drug metabolism in supersomes expressing human recombinant CYP1A1 assessed as enzyme-mediated cyanide adduct formation at 100 uM after 30 mins measured per nmol of P450 by HPLC analysis in presence of KCN
T1 sequence (P04798 whole entry): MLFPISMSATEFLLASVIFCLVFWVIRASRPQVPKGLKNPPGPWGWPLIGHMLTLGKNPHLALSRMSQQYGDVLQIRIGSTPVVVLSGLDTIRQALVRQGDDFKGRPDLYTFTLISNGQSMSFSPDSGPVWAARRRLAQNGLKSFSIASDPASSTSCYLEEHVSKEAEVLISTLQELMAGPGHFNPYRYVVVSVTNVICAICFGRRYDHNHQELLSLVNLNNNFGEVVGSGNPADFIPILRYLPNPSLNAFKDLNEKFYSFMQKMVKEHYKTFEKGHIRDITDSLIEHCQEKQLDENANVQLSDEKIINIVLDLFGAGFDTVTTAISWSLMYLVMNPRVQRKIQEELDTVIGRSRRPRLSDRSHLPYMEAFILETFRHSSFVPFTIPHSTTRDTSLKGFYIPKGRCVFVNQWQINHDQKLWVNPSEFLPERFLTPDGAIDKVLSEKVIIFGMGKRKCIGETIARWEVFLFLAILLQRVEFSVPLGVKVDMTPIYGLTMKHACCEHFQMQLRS

Cytochrome P450 2C18 [1] = target: T2, Cytochrome P450 2C18 (Homo sapiens, UniProt P33260); assay: Drug metabolism in supersomes expressing human recombinant CYP2C18 assessed as enzyme-mediated N-desmethylclozapine metabolite formation at 10 uM after 30 mins measured per nmol of P450 by HPLC analysis
T2 sequence (P33260 whole entry): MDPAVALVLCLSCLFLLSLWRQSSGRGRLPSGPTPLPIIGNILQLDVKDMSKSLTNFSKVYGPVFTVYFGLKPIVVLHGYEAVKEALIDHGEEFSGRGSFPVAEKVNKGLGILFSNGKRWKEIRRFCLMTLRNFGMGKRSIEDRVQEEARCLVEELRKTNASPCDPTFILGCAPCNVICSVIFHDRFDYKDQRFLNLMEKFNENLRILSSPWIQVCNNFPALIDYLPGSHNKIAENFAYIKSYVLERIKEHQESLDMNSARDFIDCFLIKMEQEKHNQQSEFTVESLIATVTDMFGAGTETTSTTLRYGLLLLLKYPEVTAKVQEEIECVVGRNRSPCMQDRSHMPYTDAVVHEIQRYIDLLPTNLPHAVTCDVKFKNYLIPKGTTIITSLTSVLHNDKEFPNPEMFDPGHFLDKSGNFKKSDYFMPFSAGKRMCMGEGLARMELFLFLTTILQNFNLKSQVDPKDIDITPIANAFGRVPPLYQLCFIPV

Cytochrome P450 1A2 [2] = target: T3, Cytochrome P450 1A2 (Homo sapiens, UniProt P05177); assay: Drug metabolism in supersomes expressing human recombinant CYP1A2 assessed as enzyme-mediated N-desmethylclozapine metabolite formation at 100 uM after 30 mins measured per nmol of P450 by HPLC analysis
T3 sequence (P05177 whole entry): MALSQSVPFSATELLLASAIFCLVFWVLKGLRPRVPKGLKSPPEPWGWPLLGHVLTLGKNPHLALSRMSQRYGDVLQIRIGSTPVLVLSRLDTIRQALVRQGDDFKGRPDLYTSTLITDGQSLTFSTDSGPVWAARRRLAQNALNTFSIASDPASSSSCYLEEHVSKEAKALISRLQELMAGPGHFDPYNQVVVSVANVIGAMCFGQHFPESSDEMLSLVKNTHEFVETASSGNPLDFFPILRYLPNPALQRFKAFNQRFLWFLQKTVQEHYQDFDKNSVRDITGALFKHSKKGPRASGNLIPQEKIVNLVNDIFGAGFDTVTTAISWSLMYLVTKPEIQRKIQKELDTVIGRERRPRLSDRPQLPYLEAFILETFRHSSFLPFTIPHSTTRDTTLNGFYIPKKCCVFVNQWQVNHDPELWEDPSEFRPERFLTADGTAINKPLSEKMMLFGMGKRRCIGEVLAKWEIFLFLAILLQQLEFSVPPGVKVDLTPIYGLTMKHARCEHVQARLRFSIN

Cytochrome P450 2C18 [3] = target: T2, Cytochrome P450 2C18; assay: Drug metabolism in supersomes expressing human recombinant CYP2C18 assessed as enzyme-mediated clozapine-N-oxide metabolite formation at 10 uM after 30 mins measured per nmol of P450 by HPLC analysis
Cytochrome P450 2D6 = Cytochrome P450 2D6 (Homo sapiens, UniProt P10635); assay: Drug metabolism in supersomes expressing human recombinant CYP2D6 assessed as enzyme-mediated total GSH conjugate formation at 10 uM after 30 mins measured per nmol of P450 by HPLC analysis in presence of GSH and hGST P1-1
Cytochrome P450 2C19 = Cytochrome P450 2C19 (Homo sapiens, UniProt P33261); assay: Drug metabolism in supersomes expressing human recombinant CYP2C19 assessed as enzyme-mediated N-desmethylclozapine metabolite formation at 10 uM after 30 mins measured per nmol of P450 by HPLC analysis
Cytochrome P450 1A2 [4] = target: T3, Cytochrome P450 1A2; assay: Drug metabolism in supersomes expressing human recombinant CYP1A2 assessed as enzyme-mediated total GSH conjugate formation at 10 uM after 30 mins measured per nmol of P450 by HPLC analysis in presence of GSH and hGST P1-1
Cytochrome P450 1A2 [5] = target: T3, Cytochrome P450 1A2; assay: Drug metabolism in supersomes expressing human recombinant CYP1A2 assessed as enzyme-mediated clozapine-N-oxide metabolite formation at 100 uM after 30 mins measured per nmol of P450 by HPLC analysis
Cytochrome P450 1B1 = target: T4, Cytochrome P450 1B1 (Homo sapiens, UniProt Q16678); assay: Drug metabolism in supersomes expressing human recombinant CYP1B1 assessed as enzyme-mediated total GSH conjugate formation at 10 uM after 30 mins measured per nmol of P450 by HPLC analysis in presence of GSH and hGST P1-1
T4 sequence (Q16678 whole entry): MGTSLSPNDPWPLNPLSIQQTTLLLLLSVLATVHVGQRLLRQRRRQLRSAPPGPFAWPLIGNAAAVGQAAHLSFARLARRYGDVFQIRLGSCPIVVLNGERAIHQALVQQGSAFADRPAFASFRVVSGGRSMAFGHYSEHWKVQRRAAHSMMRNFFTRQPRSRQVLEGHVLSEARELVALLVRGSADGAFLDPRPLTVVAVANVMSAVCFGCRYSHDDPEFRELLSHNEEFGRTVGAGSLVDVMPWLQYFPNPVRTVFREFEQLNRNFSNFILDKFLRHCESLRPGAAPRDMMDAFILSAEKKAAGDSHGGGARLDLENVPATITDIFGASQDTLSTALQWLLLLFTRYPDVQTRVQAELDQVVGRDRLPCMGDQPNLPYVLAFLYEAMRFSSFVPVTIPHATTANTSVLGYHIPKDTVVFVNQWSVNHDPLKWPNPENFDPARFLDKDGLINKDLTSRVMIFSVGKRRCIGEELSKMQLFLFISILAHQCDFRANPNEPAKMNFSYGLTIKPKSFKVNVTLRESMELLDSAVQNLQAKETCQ

Cytochrome P450 2C19, sequence (P33261 whole entry): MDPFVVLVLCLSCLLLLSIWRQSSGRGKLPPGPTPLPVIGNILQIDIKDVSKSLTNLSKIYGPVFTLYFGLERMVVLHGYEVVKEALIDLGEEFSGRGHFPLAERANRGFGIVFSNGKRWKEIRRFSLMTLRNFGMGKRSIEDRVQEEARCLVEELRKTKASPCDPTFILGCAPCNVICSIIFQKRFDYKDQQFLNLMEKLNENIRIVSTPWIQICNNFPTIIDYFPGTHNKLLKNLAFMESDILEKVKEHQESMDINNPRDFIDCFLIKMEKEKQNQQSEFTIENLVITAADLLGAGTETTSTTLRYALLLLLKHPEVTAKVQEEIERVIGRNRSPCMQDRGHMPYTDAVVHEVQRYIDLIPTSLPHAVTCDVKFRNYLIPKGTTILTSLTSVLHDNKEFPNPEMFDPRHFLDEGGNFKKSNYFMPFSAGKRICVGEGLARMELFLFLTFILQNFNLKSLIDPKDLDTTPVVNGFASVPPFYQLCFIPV
Cytochrome P450 2D6, sequence (P10635 whole entry): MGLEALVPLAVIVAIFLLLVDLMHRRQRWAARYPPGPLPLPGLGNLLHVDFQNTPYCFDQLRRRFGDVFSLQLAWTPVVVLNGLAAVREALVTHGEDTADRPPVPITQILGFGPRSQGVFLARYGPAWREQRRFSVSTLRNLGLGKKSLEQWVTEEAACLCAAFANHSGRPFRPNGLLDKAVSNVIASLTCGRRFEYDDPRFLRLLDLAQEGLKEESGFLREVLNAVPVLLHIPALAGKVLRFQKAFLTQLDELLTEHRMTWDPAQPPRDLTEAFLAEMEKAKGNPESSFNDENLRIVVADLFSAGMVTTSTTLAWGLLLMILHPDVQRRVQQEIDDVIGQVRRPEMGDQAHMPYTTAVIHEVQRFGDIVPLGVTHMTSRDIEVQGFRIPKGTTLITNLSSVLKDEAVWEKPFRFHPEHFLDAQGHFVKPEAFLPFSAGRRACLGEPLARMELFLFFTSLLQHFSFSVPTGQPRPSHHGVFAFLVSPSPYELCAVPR

`CN1CCN(C2=Nc3cc(Cl)ccc3Nc3ccccc32)CC1` [CLOZAPINE] was tested, and the Drug metabolism (Cytochrome P450 1A1) was 0.024 nmol/min, the Drug metabolism (Cytochrome P450 2C18 [1]) was 4.08 nmol/min/nmol P450 and the Drug metabolism (Cytochrome P450 1A2 [2]) was 8.71 nmol/min. For the same compound, the Drug metabolism (Cytochrome P450 2C18 [3]) was 0.025 nmol/min/nmol P450, the Drug metabolism (Cytochrome P450 2D6) was 0.47 nmol/min and the Drug metabolism (Cytochrome P450 2C19) was 6.62 nmol/min/nmol P450. For the same compound, the Drug metabolism (Cytochrome P450 1A2 [4]) was 0.06 nmol/min, the Drug metabolism (Cytochrome P450 1A2 [5]) was 3.7 nmol/min and the Drug metabolism (Cytochrome P450 1B1) was 0.15 nmol/min.

Source: ChEMBL document CHEMBL3525934 (Drug Metab Dispos, 2013)
